From paper PMC11013143, “4-Chloroisocoumarins as Chlamydial Protease Inhibitors and Anti-Chlamydial Agents” (Molecules, 2024) come the findings set out here.

Data set [1] concerns the target T1, Human Leukocyte Elastase (HLE) (Homo sapiens, UniProt P08246).
T1 construct: purchased Athens Research and Technology 16-15-051200
T1 sequence (P08246 30-247 limits assumed): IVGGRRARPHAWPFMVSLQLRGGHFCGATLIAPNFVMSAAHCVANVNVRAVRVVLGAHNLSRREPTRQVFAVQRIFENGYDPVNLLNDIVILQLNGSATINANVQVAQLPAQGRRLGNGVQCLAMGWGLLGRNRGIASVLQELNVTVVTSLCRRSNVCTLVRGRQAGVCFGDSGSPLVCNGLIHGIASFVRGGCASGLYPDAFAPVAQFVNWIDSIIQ
The data set is described as follows: HLE protease inhibition assay. The data set is classed as biochemical. Here is the method:
Elastase was purchased from Athens Research and Technology (Cat No. 16-15-051200). Elastase (100 µg) was dissolved in Tris buffer (100 mM Tris, 20 mM CaCl2, pH 8.1, 3.14 mL), giving a concentration of 1.117 µM, and 25 µL was added to each well containing the respective inhibitor. The plate was incubated at 37 °C for 15 min.
N-Suc-AAA-pNA (Sigma Aldrich, Bayswater, Australia, S4760, 100 µL, 1 mg/mL, […]) was added to each well, and the absorbance was monitored every six minutes at 405 nm. The rate of change of absorbance was used as a comparison to controls to determine the % inhibition of protein in Microsoft Excel^TM (v2402), and these values were exported to GraphPad Prism (v8.0.1) for IC50 calculation.

In a further data set the test system is C. trachomatis. Kind of data set: Chlamydia trachomatis growth inhibition assay in HEp-2 host cells. The data set is classed as cell-based. To be noted: for statistical significance of anti-chlamydial activity: relative to solvent controls. Here is the method: The workflow for the evaluation of chlamydial growth inhibition is described in the supplementary information (Figure S6). Briefly, HEp-2 cells were seeded in a 96-well plate and grown for 24 h; they were then infected with a fixed quantity of C. trachomatis. The infection was propagated for 4 h, and then a mixture of test compound and cycloheximide was added and the plate was incubated for a further 26 h (30 h post infection). The cells were fixed with methanol and then stained with fluorescent antibodies to visualize chlamydial inclusions, and the growth was measured using inclusion counts relative to vehicle controls.
HEp-2 cells were grown until confluent in a T-75 flask with DMEM (containing 10% FCS, gentamycin (0.05 mg/mL), streptomycin (0.1 mg/mL) and glutamine (Sigma-Aldrich Cat No. G7513, 4 mM); they were then harvested with trypsin, and the cell density was determined with a haemocytometer. Cells were diluted to 1 × 10^5 cells/mL, and 200 µL was dispensed to each well in a 96-well plate and then incubated for 24 h at 5% CO2 at 37 °C.
The supernatant was removed, and 100 µL of the respective chlamydia species in media (100,000 IFU/mL) was added, giving an MOI of 0.5. The plate was sealed and centrifuged at 500× g/28 °C for 30 min and then incubated for a further 3.5 h at 37 °C with 5% CO2. The supernatant was removed, and 100 µL of cycloheximide in DMEM (1 µg/mL) was added in addition to 100 µL of drug stock solution to each respective well with DMSO and media negative controls and also azithromycin positive control. The plate was incubated for a further 26 h.
The supernatant was removed, and wells were washed with PBS (2 × 150 µL) and then fixed in methanol for eight minutes. The methanol was removed and washed with additional PBS (2 × 150 µL) and stored at 4 °C with 100 µL PBS per well and then stained and analyzed using fluorescence microscopy, which is outlined below.
Cells in fixed plates were permeabilized with 0.5% Triton X-100 in PBS for 15 min and then blocked with 1% BSA in PBS for 45 min. Anti-HtrA polyclonal antibody (sera) (1:600) (in-house), anti-mouse tubulin (Sigma-Aldrich Cat no. T-5168, 1:3000) and DAPI (125 ng/mL) in PBS were added to each well (70 µL) and then gently shaken at room temperature while shielding it from light for 45 min. The primary antibodies were removed, and the wells were washed with PBS (4 × 150 µL). Secondary antibodies (goat anti-rabbit Alexafluor 488, Thermo Fisher Cat No. A-11008 and goat anti-mouse Alexafluor 568 (Thermo Fisher Cat No. A-11004)) in PBS (70 µL, 1:600 respectively) were added and the wells were gently shaken at room temperature while shielding them from light for 45 min. The antibodies were removed, and the wells were washed with PBS (5 × 150 µL); cells were then stored with PBS (100 µL per well) at 4 °C pending analysis.
Plates were analyzed on an INcell Analyzer 2200 (Cytiva Life Sciences, Marlborough, MA, USA) using both laser autofocus (10%) and software autofocus modes, with ten random images per well covering a minimum of 80% of the well at 10x magnification. Non-morphologically affected inclusions were counted using a macro in ImageJ (v1.54f), and MIC was defined as being one two-fold dilution more concentrated than MICTP (where MICTP is defined as the lowest concentration to produce ≥90% morphologically abnormal inclusions) relative to solvent controls.

Where [2] appears, read: 62.5 µM, 30 h post infection, HEp-2 host cells.

The structures appear in SMILES notation. In brackets after ≈: the same amount, converted by molar mass.

Take `CCC(C)Oc1oc(=O)c2ccccc2c1Cl` (racemic) [Compound 2g, (±)-3-sec-Butoxy-4-chloroisocoumarin]: the IC50 – broadly, the concentration that inhibits the measured activity by half – in data set [1] (Table S1, variable slope four parameter fit, read-out: IC50 against HLE) turned out to be 1810 nM. For the same compound, in data set [1] ([IC50 of JO146]/[IC50 test compound]), the “Relative Potency against HLE” value stood at 0.451. For the same compound, the “reduction of chlamydial growth” value in the data set with C. trachomatis (setting [2]) stood at 49%.
`CCC(C)Oc1oc(=O)c2cc(N)ccc2c1Cl` (racemic) [Compound 6a, (±)-7-Amino-4-chloro-3-sec-butoxyisocoumarin] displayed a chlamydial inclusions affected with C. trachomatis (setting [2]) of at least 90%. In addition, the “statistical significance of anti-chlamydial activity” value (from here on “statistical significance”) in the data set with C. trachomatis (62.5 µM) is “statistically significant anti-chlamydial activity”. Further, the “inhibition of C. trachomatis growth versus 90% threshold” value in the data set with C. trachomatis (any concentration tested, 30 h post infection, dose-response) is given as “did not consistently show inhibition greater than the 90% threshold”.
`CCC(C)Oc1oc(=O)c2cc(N(C)C)ccc2c1Cl` (racemic) [Compound 6b, (±)-7-(Dimethylamino)-3-sec-butoxy-4-chloroisocoumarin] came in with a chlamydial inclusions affected with C. trachomatis (setting [2]) of at least 90%. Moreover, in the data set with C. trachomatis (62.5 µM), the “statistical significance” value is reported as “statistically significant anti-chlamydial activity”. For the same compound, the inhibition – broadly, the drop in the measured response relative to a control, in per cent – at 31.25 µM in the data set on C. trachomatis (Chlamydia trachomatis, HEp-2, concentrations ≥ 31.25 µM, 30 h post infection, dose-response) was over 90%. Besides, the MIC in the data set on C. trachomatis (Chlamydia trachomatis, MIC defined as twice the MICTP (>90% altered chlamydial morphology), read-out: MIC (minimum inhibitory concentration) against C. trachomatis) amounted to 62.5 µM (≈ 18.5 µg/mL).
Turning to `CCC(C)Oc1oc(=O)c2cc(NC(C)=O)ccc2c1Cl` (racemic) [Compound 6c, (±)-N-(4-Chloro-1-oxo-3-sec-butoxy-isochromen-7-yl)acetamide], in the data set on C. trachomatis (setting [2]), the “anti-chlamydial activity against C. trachomatis” value is listed as “did not significantly affect the efficacy of 2g”.
`CCC(C)Oc1oc(=O)c2cc(NC(=O)C(F)(F)F)ccc2c1Cl` (racemic) [Compound 6d, (±)-N-(4-chloro-1-oxo-3-sec-butoxy-isochromen-7-yl)-2,2,2-trifluoroacetamide]: the melting point (in general, the temperature of the solid-liquid transition) fell in the range of 189 to 190 °C. For the same compound, the “anti-chlamydial activity against C. trachomatis” value in the data set with C. trachomatis (setting [2]) is “comparable efficacy to the methoxy (6h) analogue”. Also, the “statistical significance” value in the data set on C. trachomatis (62.5 µM) is reported as “statistically significant anti-chlamydial activity”.
In the case of `CCC(C)Oc1oc(=O)c2cc(I)ccc2c1Cl` (racemic) [Compound 6e, (±)-3-sec-Butoxy-4-chloro-7-iodoisocoumarin], the “anti-chlamydial activity against C. trachomatis” value in the data set with C. trachomatis (setting [2]) is reported as “did not significantly affect the efficacy of 2g”. In the data set with C. trachomatis (62.5 µM), the “statistical significance” value is “statistically significant anti-chlamydial activity”.
On to `CCC(C)Oc1oc(=O)c2cc(OC)ccc2c1Cl` (racemic) [Compound 6h, (±)-7-Methoxy-3-sec-butoxy-4-chloroisocoumarin], for which, in the data set on C. trachomatis (62.5 µM), the “statistical significance” value was “statistically significant anti-chlamydial activity”.
